Experiments:
[1] = Free concentration and protein binding in spiked human serum samples (Table S5); conditions: for fraction unbound: human, serum, PB
Method: Subsequently, samples were mixed for 10 s, stored in an ultrasonic bath for 10 min at 40 °C, then centrifuged at 8000× g for 5 min. Next, 100 µL of the resulting supernatant was further diluted with 500 µL water with 0.1% formic acid. […] Details are described in the Supplementary Materials (Figures S1–S3).
Table S5. […] In order to evaluate the
(a) Spiked human serum samples of 14 patients (8 critically ill and 6 non-critically ill) after calibration with sheep serum.
(b) Spiked human serum samples of 9 critically ill patients and 6 healthy volunteers after calibration with human serum.

[2] = Stability of aqueous stock solution; assay type: physicochemical; conditions: HPLC-UV
Excerpt: (§1) For stability testing, two samples were thawed out and subsequently analyzed. Stability was defined by the time for which samples remained a concentration of > 90% of their baseline concentrations.

[3] = Stability of dalbavancin in human serum; conditions: serum samples, HPLC-UV
Excerpt: as §1

[4] = S5b, serum of 29 (healthy volunteer) spiked 200 mg/L, measured c 207 mg/L, calibration with human serum
[5] = S5b, serum of patient 16 (critically ill) spiked 50 mg/L, measured c 56.7 mg/L, calibration with human serum
[6] = S5b, serum of patient 17 (critically ill) spiked 200 mg/L, measured c 222 mg/L, calibration with human serum
[7] = S5b, serum of patient 18 (critically ill) spiked 50 mg/L, measured c 57.6 mg/L, calibration with human serum
[8] = S5b, serum of patient 18 (critically ill) spiked 200 mg/L, measured c 242 mg/L, calibration with human serum
[9] = S5b, serum of patient 19 (critically ill) spiked 50 mg/L, measured c 51.1 mg/L, calibration with human serum
[10] = S5b, serum of patient 19 (critically ill) spiked 200 mg/L, measured c 197 mg/L, calibration with human serum
[11] = S5b, serum of patient 20 (critically ill) spiked 50 mg/L, measured c 54.5 mg/L, calibration with human serum
[12] = S5b, serum of patient 20 (critically ill) spiked 200 mg/L, measured c 254 mg/L, calibration with human serum
[13] = S5b, serum of patient 21 (critically ill) spiked 50 mg/L, measured c 55.2 mg/L, calibration with human serum
[14] = S5b, serum of patient 23 (critically ill) spiked 50 mg/L, measured c 56.0 mg/L, calibration with human serum

Compound: CN[C@H]1C(=O)N[C@@H]2Cc3ccc(cc3)Oc3cc4cc(c3O[C@@H]3O[C@H](C(=O)O)[C@@H](O)[C@H](O)[C@H]3NC(=O)CCCCCCCCC(C)C)Oc3ccc(cc3Cl)[C@@H](O)[C@@H]3NC(=O)[C@H](NC(=O)[C@@H]4NC(=O)[C@@H](NC2=O)c2cc(cc(O)c2Cl)Oc2cc1ccc2O)c1ccc(O)c(c1)-c1c(O[C@H]2O[C@H](CO)[C@@H](O)[C@H](O)[C@@H]2O)cc(O)cc1[C@@H](C(=O)NCCCN(C)C)NC3=O [dalbavancin, Dalbavancin]
- fc ([1]; S5b, serum of 29 (healthy volunteer) spiked 50 mg/L, measured c 52.0 mg/L, calibration with human serum): 1.4 mg/L
- PB [1, 4]: 98%
- fc [1, 4]: 4.6 mg/L
- fc ([1]; S5b, serum of patient 15 (critically ill) spiked 50 mg/L, measured c 56.7 mg/L, Nanosep SPE, HPLC-UV, calibration with human serum): 1.9 mg/L
- fc ([1]; S5b, serum of patient 15 (critically ill) spiked 200 mg/L, measured c 239 mg/L, calibration with human serum): 9.8 mg/L
- fc [1, 5]: 1.8 mg/L
- fc ([1]; S5b, serum of patient 16 (critically ill) spiked 200 mg/L, measured c 233 mg/L, calibration with human serum): 12.1 mg/L
- fc ([1]; S5b, serum of patient 17 (critically ill) spiked 50 mg/L, measured c 52.5 mg/L, calibration with human serum): < 1.0 mg/L
- fc [1, 6]: 8.3 mg/L
- fc [1, 7]: 1.3 mg/L
- fc [1, 8]: 8.8 mg/L
- fc [1, 9]: 1.2 mg/L
- fc [1, 10]: 7.1 mg/L
- fc [1, 11]: 1.7 mg/L
- fc [1, 12]: 8.2 mg/L
- fc [1, 13]: 1.6 mg/L
- fc ([1]; S5b, serum of patient 21 (critically ill) spiked 200 mg/L, measured c 230 mg/L, calibration with human serum): 11.0 mg/L
- fc ([1]; S5b, serum of patient 22 (critically ill) spiked 50 mg/L, measured c 59.8 mg/L, calibration with human serum): 2.5 mg/L
- fc ([1]; S5b, serum of patient 22 (critically ill) spiked 200 mg/L, measured c 266 mg/L, calibration with human serum): 16.5 mg/L
- fc [1, 14]: 2.2 mg/L
- fc ([1]; S5b, serum of patient 23 (critically ill) spiked 200 mg/L, measured c 233 mg/L, calibration with human serum): 9.6 mg/L
- fraction unbound [1]: 0.05
- fraction unbound ([1]; S5a, serum of patient 1 (critically ill) spiked 50 mg/L, measured c 53.5 mg/L, calibration with sheep serum): 0.03
- fraction unbound ([1]; S5a, serum of patient 1 (critically ill) spiked 200 mg/L, measured c 201 mg/L, calibration with sheep serum): 0.04
- fraction unbound ([1]; S5a, serum of patient 2 (critically ill) spiked 50 mg/L, measured c 53.6 mg/L, calibration with sheep serum): 0.03
- fraction unbound ([1]; S5a, serum of patient 3 (critically ill) spiked 200 mg/L, measured c 209 mg/L, calibration with sheep serum): 0.04
- fraction unbound ([1]; S5a, serum of patient 4 (critically ill) spiked 50 mg/L, measured c 54.2 mg/L, calibration with sheep serum): 0.03
- fraction unbound ([1]; S5a, serum of patient 4 (critically ill) spiked 200 mg/L, measured c 212 mg/L, calibration with sheep serum): 0.04
- fraction unbound ([1]; S5a, serum of patient 5 (critically ill) spiked 50 mg/L, measured c 53.0 mg/L, calibration with sheep serum): 0.04
- fraction unbound ([1]; S5a, serum of patient 6 (critically ill) spiked 50 mg/L, measured c 50.4 mg/L, calibration with sheep serum): 0.03
- fraction unbound ([1]; S5a, serum of patient 8 (critically ill) spiked 50 mg/L, measured c 54.3 mg/L, calibration with sheep serum): 0.03
- fraction unbound ([1]; S5a, serum of patient 8 (critically ill) spiked 200 mg/L, measured c 201 mg/L, calibration with sheep serum): 0.04
- fraction unbound ([1]; S5a, serum of patient 9 (non-critically ill) spiked 200 mg/L, measured c 177 mg/L, calibration with sheep serum): 0.02
- fraction unbound ([1]; S5a, serum of patient 10 (non-critically ill) spiked 200 mg/L, measured c 180 mg/L, calibration with sheep serum): 0.02
- fraction unbound ([1]; S5a, serum of patient 11 (non-critically ill) spiked 200 mg/L, measured c 177 mg/L, calibration with sheep serum): 0.02
- fraction unbound ([1]; S5a, serum of patient 12 (non-critically ill) spiked 200 mg/L, measured c 195 mg/L, calibration with sheep serum): 0.02
- fraction unbound ([1]; S5a, serum of patient 13 (non-critically ill) spiked 50 mg/L, measured c 53.0 mg/L, calibration with sheep serum): 0.02
- fraction unbound ([1]; S5a, serum of patient 13 (non-critically ill) spiked 200 mg/L, measured c 214 mg/L, calibration with sheep serum): 0.03
- fraction unbound ([1]; S5a, serum of patient 14 (non-critically ill) spiked 50 mg/L, measured c 50.0 mg/L, calibration with sheep serum): 0.02
- fraction unbound ([1]; S5a, serum of patient 14 (non-critically ill) spiked 200 mg/L, measured c 208 mg/L, calibration with sheep serum): 0.02
- fraction unbound ([1]; S5b, serum of 24 (healthy volunteer) spiked 50 mg/L, measured c 46.1 mg/L, calibration with human serum): 0.03
- fraction unbound ([1]; S5b, serum of 24 (healthy volunteer) spiked 200 mg/L, measured c 184 mg/L, calibration with human serum): 0.02
- fraction unbound ([1]; S5b, serum of 25 (healthy volunteer) spiked 50 mg/L, measured c 45.8 mg/L, calibration with human serum): 0.03
- fraction unbound ([1]; S5b, serum of 25 (healthy volunteer) spiked 200 mg/L, measured c 197 mg/L, calibration with human serum): 0.03
- fraction unbound ([1]; S5b, serum of 26 (healthy volunteer) spiked 50 mg/L, measured c 52.6 mg/L, calibration with human serum): 0.03
- fraction unbound ([1]; S5b, serum of patient 15 (critically ill) spiked 50 mg/L, measured c 56.7 mg/L, calibration with human serum): 0.03
- fraction unbound [1, 5]: 0.04
- fraction unbound [1, 6]: 0.04
- fraction unbound [1, 7]: 0.03
- fraction unbound [1, 8]: 0.04
- fraction unbound [1, 9]: 0.02
- fraction unbound [1, 10]: 0.04
- fraction unbound [1, 11]: 0.03
- fraction unbound [1, 12]: 0.04
- fraction unbound [1, 13]: 0.03
- fraction unbound [1, 14]: 0.04
- stability time (>90% of baseline concentration) ([2]; frozen at −80 °C): at least 12 months
- stability time (>90% of baseline concentration) ([2]; refrigerated (2–8 °C)): at least 3 months
- stability time (>90% of baseline concentration) ([3]; frozen at −20 °C): at least 1 month
- stability time (>90% of baseline concentration) ([3]; frozen at −80 °C): at least 12 months
- stability time (>90% of baseline concentration) ([3]; refrigerated (2–8 °C)): at least 96 h
- stability time (>90% of baseline concentration) ([3]; room temperature): ≥ 48 h

Reference: publication PMC9137512 (Antibiotics, 2022)
